Experimental data published in patent publication US11136297B2, “Compositions and methods for treating cancer” (THE REGENTS OF THE UNIVERSITY OF CALIFORNIA, priority 2016, dated 2021).

Experiments:
[1] = biological target: T1, H-Ras(M72C) GppNHp binding to Raf-1-RBD (Homo sapiens, UniProt P01112, M72C); assay: Ras GppNHp in vitro pull down by His6-MBP-Raf-1-RBD; conditions: H-Ras(M72C) pre-labeled with compound
T1 construct: and H-Ras (residues 1-166) were transformed into Escherichia coli; His6; made in house; host or cells: Escherichia coli BL21(DE3)
Method: Ras GppNHp In Vitro Pull Down Assay by His6-MBP-Raf-1-RBD. For each His6-MBP-Raf-1-RBD in vitro pull down the total volume was 500 μL. Each reaction had the following final composition: Either 20, 80, 200, 400, or 800 nM Ras GppNHp (from 0.2 mg/mL Ras stock), 75 nM BSA (2.5 μg, 5 μL of 0.5 mg/mL BSA stock), 200 nM of His6-MBP-Raf-1-RBD (5.3 μg, 1.2 μL of 4.38 mg/mL stock of His6-MBP-Raf-1-RBDwitt), and Raf Pull Down Buffer to volume (25 mM Tris (pH 7.2), 150 mM NaCl, 5 mM MgCl2, 1% NP-40, 5% glycerol, 20 mM imidazole). Samples were then mixed by gentle rotation at 4° C. for 30 min. While equilibrating, add 50 μL Ni-NTA slurry (Qiagen) to a cellulose acetate spin cup and spin at 5,000 rpm on a tabletop centrifuge for 30 seconds. Wash the beads with 400 μL of Raf Pull Down Buffer to wash away bead storage buffer. Before adding each pull down solution, take 10 μL and save as a loading control sample. To each spin cup filled with washed Ni-NTA beads, add the remaining equilibrated pull down solution, seal the spin cup with parafilm and let rotate at 4° C. for 30 more minutes. After mixing, centrifuge the sample for 30 seconds at 5,000 rpm. Toss flow through. Wash the beads X 5 with 400 μL of Raf Pull Down Buffer. After last wash, centrifuge one last time to remove any excess buffer stuck to the beads. […] Blots were read out using LICOR compatible secondary antibodies. […]

[2] = biological target: H-Ras(M72C) GDP (Homo sapiens, UniProt P01112, M72C); assay: Intrinsic nucleotide affinity by EDTA catalyzed nucleotide exchange (Raf-1-RBD pull down readout); type: biochemical; design: and H-Ras (residues 1-166) were transformed into Escherichia coli; His6; made in house; host or cells: Escherichia coli BL21(DE3)
Method: Intrinsic Nucleotide Affinity by EDTA Catalyzed Nucleotide Exchange. For each EDTA catalyzed reaction, the total reaction volume was 500 μL. Each reaction had the following final composition: 100 nM Ras GDP (1 μg, 5 μL of 0.2 mg/mL Ras stock), 75 nM BSA (2.5 μg, 5 μL of 0.5 mg/mL BSA stock), 100 μM total nucleotide concentration (5 μL of various ratios of GDP:GppNHp from 10 mM stock solutions), 10 mM of EDTA (10 μL of 0.5M EDTA pH 8.0), 64 mM of MgCl2 (16 μL of 2M MgCl2 stock), 3 μM of His6-MBP-Raf-1-RBDwitt (80 μg, 18.3 μL of 4.38 mg/mL stock of His6-MBP-Raf-1-RBDwitt), and Raf Pull Down Buffer to volume (25 mM Tris (pH 7.2), 150 mM NaCl, 5 mM MgCl2, 1% NP-40, 5% glycerol, 20 mM imidazole). Prior to initiating the EDTA catalyzed nucleotide exchange, the Ras, BSA, nucleotide, and Raf Pull Down Buffer were mixed by pipette on ice. To each tube, the EDTA was added, sample was inverted X 3, and then placed in a pre-warmed tube rack at 30° C. The exchange was allowed to occur at 30° C. for 15 minutes, inverting each tube X 3 every 5 minutes. Once the 15 minutes of exchange was complete, MgCl2 was added to each tube and inverted X 3 and placed on ice for 15 minutes. During the quenching on ice, add 100 μL Ni-NTA slurry (Qiagen) to a cellulose acetate spin cup and spin at 5,000 rpm on a tabletop centrifuge for 30 seconds. Wash the beads with 400 μL of Raf Pull Down Buffer to wash away bead storage buffer. Before adding the beads and His6-tagged Raf-1-RBDwitt, take a 10 μL sample as a loading control and quench it with 5 μL 5×SDS loading buffer. To each spin cup filled with washed Ni-NTA beads, add the quenched EDTA catalyzed exchange reaction and the His6-tagged Raf-1-RBDwitt. Seal the spin cup with parafilm and let rotate at 4° C. for 1 h. After mixing, centrifuge the sample for 30 seconds at 5,000 rpm. Toss flow through. Wash the beads×5 with 400 μL of Raf Pull Down Buffer. After last wash, centrifuge one last time to remove any excess buffer stuck to the beads. To each cup, add 50 μL of 5×SDS loading buffer and mix by vortexing. Let the buffer sit on the beads for 5 minutes and then elute into a fresh tube by centrifuging at 5000 rpm for 1.5 minutes. Load 10 μL of each loading control sample and 25 μL of each eluted pull down onto a SDS-PAGE gel and transfer to a nitrocellulose blot for Western Blot analysis. Block with 5% BSA TBS buffer and then blot with pan Ras primary antibody at a 1:500 dilution in 5% BSA in TBST (Cell Signaling #3965). Blots were read out using LICOR compatible secondary antibodies and quantified. Signal from each GDP-only (i.e. 0% GppNHp) exchange was subtracted as background from the 20%, 50%, and 66% GppNHp pull-down signals for each protein construct. The signal for the GppNHp only lane (i.e. 100% GppNHp) was normalized to 1 and all other signals were made relative to this band within each protein construct tested.

Normalized Average (Nucleotide Exchange PD Assay) ([2]; H-Ras(M72C) 2C07, GppNHp only, normalized to 1): 1.00 | Normalized Average (Nucleotide Exchange PD Assay) ([2]; H-Ras(M72C) 2C07, GTP:GDP 0, background subtracted): 0.00 | Normalized Average (Nucleotide Exchange PD Assay) ([2]; H-Ras(M72C) 2C07, GTP:GDP 0.2, relative to GppNHp-only signal): 0.03 | Normalized Average (Nucleotide Exchange PD Assay) ([2]; H-Ras(M72C) 2C07, GTP:GDP 0.5, relative to GppNHp-only signal): 0.12 | Normalized Average (Nucleotide Exchange PD Assay) ([2]; H-Ras(M72C) 2C07, GTP:GDP 0.67, relative to GppNHp-only signal): 0.13
SMILES: COc1ccc(-n2ncc(C(=O)NCCCSSCCN(C)C)c2C(F)(F)F)cc1 [Compound 2C07, N-(3-((2-(dimethylamino)ethyl)disulfanyl)propyl)-1-(4-methoxyphenyl)-5-(trifluoromethyl)-1H-pyrazole-4-carboxamide]
Raf-1-RBD binding (pull down), labeled vs unlabeled H-Ras(M72C) [1]: no significant difference in Raf-1-RBD binding | nucleotide preference of 2C07 bound Ras ([2]; varying ratios of GDP:GppNHp, EDTA catalyzed exchange): nucleotide preference for GDP over GppNHp
